From patent US4239887A, “Pyridothienotriazines” (USV Pharmaceutical Corporation, priority 1979, dated 1980)

Assays:
[1] = tested on: formation of a wheal (Rat Passive Cutaneous Anaphylaxis); experiment: Rat Passive Cutaneous Anaphylaxis (PCA) Screen, inhibition of wheal formation; assay type: in vivo; settings: for ED50: oral (p.o.), rat PCA, read-out: ED50 (dose required to give 50% reduction in wheal size)
From the text: The compounds of this invention have potent activity in inhibiting the formation of a wheal when screened according to the Rat Passive Cutaneous Anaphylaxis Screen as is described by I. Mota, Life Sciences, 7, 465 (1963) and Z. Ovary, et al., Proceedings of Society of Experimental Biology and Medicine, 81, 584 (1952).
The activities are given as ED50 values, which are the doses required to give 50% reductions in wheal size.

[2] = oral anti-allergy activity in standard tests; assay type: in vivo; settings: standard tests for anti-allergy activity

Row | Compound | ED50 [1] [mg/kg] | anti-allergy activity (in words) [2] | inhibition of wheal size ([1]; tested at 25 mg/kg, p.o.) [%]
1 | Cc1cc(C)c2c(n1)sc1c(O)nnnc12 [7,9-diCH3, OH, 4-Hydroxy-7,9-dimethylpyrido[3',2':4,5]thieno[3,2-d]-1,2,3-triazine] | 5.6 | – | –
2 | Cc1ccc2c(n1)sc1c(O)nnnc12 [7-CH3, OH, 4-Hydroxy-7-methylpyrido[3',2':4,5]thieno[3,2-d]-1,2,3-triazine] | 6 | – | –
3 | Oc1nnnc2c1sc1ncccc12 [4-Hydroxy-pyrido[3',2':4,5]thieno[3,2-d]-1,2,3-triazine, reference compound] | – | essentially inactive | 31
4 | Cc1ccc2c(n1)sc1cnnnc12 [7-CH3, H, 7-Methylpyrido[3',2':4,5]thieno[3,2-d]-1,2,3-triazine] | 1 | – | –
5 | Oc1nnnc2c1sc1nc(-c3ccccc3)ccc12 [7-phenyl, OH, 4-Hydroxy-7-phenylpyrido[3',2':4,5]thieno[3,2-d]-1,2,3-triazine] | 0.74 | – | –
